According to paper PMC12040169 (PLOS Biology, 2025):

experiment: in vitro; conditions: human, hela cells, % viability

Going from `CCn1c(CN2CC(n3nc(C)cc3C)C2)nc2c(F)cccc21` [CBK306220] to `Cc1nn(C)c(C)c1CC(=O)NC1CCN(c2c(F)cccc2F)C1` (stereo not drawn) [CBK306307], the viability at 28.5 h, 10 µM rises from 82% to 83.2%.

Going from `O=C1NC2(CCSC2)C(=O)N1Cc1noc(-c2cccs2)n1` (stereo not drawn) [CBK306225] to `O=C(c1cc(Cl)c[nH]1)N1CCN(Cc2cc(=O)n3ccsc3n2)CC1` [CBK306313], the viability at 28.5 h, 10 µM rises from 90.6% to 92.9%.

Compared with `Cc1cc(C(=O)Nc2cc(F)c(N3CCCC3)c(F)c2)c(C)n1C1CC1` [CBK306226], `Cn1nccc1CNCc1c(Br)cc(F)c(F)c1N1CCCCC1` [CBK306284] is lower in viability at 28.5 h, 10 µM: 102% for the first, 92.8% for the second.

First: CN1CCC(NC(=O)c2cccc(NC(=O)C3CCCCC3)c2)C1=O (stereo not drawn) [CBK306228]
Second: CC(=O)Nc1cccc(C(=O)OCC(=O)N2CCCC2)c1 [CBK306395]
The viability at 28.5 h, 10 µM of the first is lower: 81.3% for the first, 91.6% for the second.

First: CN(C)c1ccc(Nc2ncnc3c2cnn3CCC#N)cn1 [CBK306231]
Second: CC(=O)N(C)Cc1cccc(Nc2ncnc3c2cnn3CCC#N)c1 [CBK306232]
The viability at 28.5 h, 10 µM of the first is higher: 103% for the first, 88.5% for the second.

Compared with `Cc1cc(C)n(CC(=O)N2CCC(Nc3cccnn3)CC2)n1` [CBK306234], `CCc1nc2ccccc2n1C1CCN(C(=O)Cc2cccnc2)CC1` [CBK306389] is lower in viability at 28.5 h, 10 µM: 106% for the first, 100% for the second.

First: Cc1cc(NC(=O)N2CCCN(CC3CCCCC3)CC2)no1 [CBK306239]
Second: CCOC(=O)C1CCN(C(=O)Nc2cc(C)on2)CC1 [CBK306280]
The viability at 28.5 h, 10 µM of the first is higher: 99.9% for the first, 88.5% for the second.

First: N#Cc1ccc(NCC(=O)Nc2ccn(Cc3ccncc3)n2)cc1 [CBK306241]
Second: N#Cc1ccc(NCC(=O)Nc2ncn(Cc3cccnc3)n2)cc1 [CBK306343]
The viability at 28.5 h, 10 µM of the first is lower: 89.7% for the first, 94.3% for the second.

Going from `CC(NC(=O)CCc1cccnc1)c1nc(-c2ccncc2)cs1` (stereo not drawn) [CBK306243] to `O=C(Nc1cccc(F)c1)N1CCC(Cc2cccnc2)CC1` [CBK306369], the viability at 28.5 h, 10 µM falls from 90.8% to 87.3%.

Going from `CCOCC(=O)N(C)C1CCN(c2ncnc3ccccc23)CC1` [CBK306247] to `O=C(NCc1ccsc1)NCC1CCN(c2ccncc2)CC1` [CBK306394], the viability at 28.5 h, 10 µM rises from 89.1% to 91.3%.

First: CC(C)NC(=O)N1CCN(Cc2nc(-c3ccoc3)no2)CC1 [CBK306248]
Second: CC(C)(C)OC(=O)N1CCN(Cc2ncc(-c3ccccc3)o2)CC1 [CBK306281]
The viability at 28.5 h, 10 µM of the first is lower: 88.2% for the first, 99.3% for the second.

Going from `O=C(Nc1cc(N2CCCS2(=O)=O)ccc1Cl)c1cc[nH]n1` [CBK306249] to `Cn1cc(NC(=O)c2ccc(CN3CCCC3=O)cc2)cn1` [CBK306322], the viability at 28.5 h, 10 µM rises from 83.1% to 89.7%.

Going from `CCOC(=O)N1CCN(C(=O)Nc2ccc3oc(=O)n(C)c3c2)CC1` [CBK306250] to `COc1ccnc(N2CCN(C(=O)c3cc(C(C)=O)cn3C)CC2)n1` [CBK306272], the viability at 28.5 h, 10 µM falls from 109% to 91.2%.

First: CCCc1nc(-c2ccc3c(c2)CCCN3S(C)(=O)=O)cs1 [CBK306253]
Second: CS(=O)(=O)N1CCc2cc(-c3csc(C4CC4)n3)ccc21 [CBK306347]
The viability at 28.5 h, 10 µM of the first is higher: 93% for the first, 70.5% for the second.

Going from `CC1CCN(C(=O)COC(=O)c2cnc(-c3ccncc3)s2)CC1` [CBK306255] to `COc1ccnc(N2CCN(C(=O)CCc3ccsc3)CC2)n1` [CBK306350], the viability at 28.5 h, 10 µM falls from 94.6% to 90.5%.

Going from `Brc1ccc(C2(c3nnc(C4CCCO4)o3)CCOCC2)cc1` (stereo not drawn) [CBK306258] to `Cc1ccn(-c2ccc(N3CCC(OC4CCOCC4)CC3)nn2)n1` [CBK306296], the viability at 28.5 h, 10 µM falls from 117% to 87%.

First: CCC(NS(=O)(=O)c1cnc2c(c1)c(C)nn2C)C(O)C(F)(F)F (stereo not drawn) [CBK306264]
Second: CC(C)N(CC(N)=O)Cc1nc(-c2cccc(C(F)(F)F)c2)no1 [CBK306287]
The viability at 28.5 h, 10 µM of the first is lower: 86.5% for the first, 89.8% for the second.

Compared with `COc1ccc(Br)c(C(CO)N(C)C(=O)Cc2cnccc2C)c1` (stereo not drawn) [CBK306267], `COc1ccc(CC2CCCN2C(=O)Cn2cncn2)cc1` (stereo not drawn) [CBK306351] is higher in viability at 28.5 h, 10 µM: 96.4% for the first, 97.3% for the second.

Going from `O=C(NC1CCN(CC(F)(F)F)C1=O)c1ccnc(C2CC2)n1` (stereo not drawn) [CBK306268] to `Cc1noc(C(C)C)c1C(=O)NC1CCCN(c2ccn(C)n2)C1=O` (stereo not drawn) [CBK306356], the viability at 28.5 h, 10 µM falls from 97% to 75.8%.

First: Cn1nc(CN2CCNC(=O)C2c2ccccc2C(F)(F)F)[nH]c1=O (stereo not drawn) [CBK306269]
Second: Cn1nc(CN(Cc2ccccc2C(F)(F)F)C2CC2)[nH]c1=O [CBK306391]
The viability at 28.5 h, 10 µM of the first is lower: 91.3% for the first, 98.2% for the second.

First: Cc1sc2nc(C(C)N(C)Cc3cc[nH]n3)[nH]c(=O)c2c1C (stereo not drawn) [CBK306275]
Second: Cc1sc(NC(=O)CN(Cc2cnn(C)c2)C(C)C)c(C#N)c1C [CBK306303]
The viability at 28.5 h, 10 µM of the first is higher: 99.3% for the first, 93.1% for the second.

First: Cc1cc(C)nc(NCc2cnn(C)c2C)n1 [CBK306276]
Second: Cc1nn(C)c(C)c1OCC(=O)Nc1nc2c(cc1C#N)CCC2 [CBK306371]
The viability at 28.5 h, 10 µM of the first is higher: 88.1% for the first, 81% for the second.

First: COCC1CN(C(=O)Nc2ncc(Cc3ccc(C)c(Cl)c3)s2)CCO1 (stereo not drawn) [CBK306286]
Second: Cc1ccc(NCC2CCN(CC(=O)Nc3cc(C)on3)C2)nc1 (stereo not drawn) [CBK306337]
The viability at 28.5 h, 10 µM of the first is lower: 84% for the first, 95.5% for the second.

First: CC(c1cccs1)N(C)C(=O)NC1CCCc2c1cnn2CCO (stereo not drawn) [CBK306289]
Second: Cc1ncc2c(n1)CCCC2NC(=O)c1ccccc1Cn1cncn1 (stereo not drawn) [CBK306381]
The viability at 28.5 h, 10 µM of the first is higher: 113% for the first, 100% for the second.

First: CC(=O)N1CC(C(=O)N2CC3(CCCC3)c3c(F)cccc32)C1 [CBK306292]
Second: CC(=O)N1CC2(CCCC2)c2c(F)cccc21 [CBK306339]
The viability at 28.5 h, 10 µM of the first is higher: 97.6% for the first, 78.2% for the second.

First: O=C(NCc1cccs1)N1CCCN(Cc2ccc(F)cc2)CC1 [CBK306294]
Second: NC(=O)COc1ccc(CNC(=O)CN2CCCCCC2)cc1 [CBK306332]
The viability at 28.5 h, 10 µM of the first is higher: 97.4% for the first, 87.6% for the second.

Going from `COCc1nc(C(=O)Nc2ccc(NC(C)=O)cc2C(F)(F)F)cs1` [CBK306298] to `CC(C)Oc1ncc(C(=O)NCc2cccc(NC(N)=O)c2)cc1Cl` [CBK306327], the viability at 28.5 h, 10 µM falls from 107% to 94.4%.

First: NC(=O)NC(CC(=O)N1CCOC2CCCCC21)c1cccc(Br)c1 (stereo not drawn) [CBK306299]
Second: NC(=O)NC(CC(=O)N1CCCC1c1ccncc1)c1cccc(Br)c1 (stereo not drawn) [CBK306345]
The viability at 28.5 h, 10 µM of the first is higher: 93.8% for the first, 92.7% for the second.

Going from `Cc1ccn(-c2ccc(N3CCC(OC4CCCC4)CC3)nn2)n1` [CBK306301] to `CCCN1CCCN(c2ccc(-n3ccc(C)n3)nn2)CC1` [CBK306304], the viability at 28.5 h, 10 µM rises from 96% to 107%.

Compared with `Cc1nc(S(=O)(=O)N2CCC3(CCCCC3)C2)cn1C` [CBK306306], `O=C(O)C1CC1C(=O)N1CC2(CCCC2)c2c(F)cccc21` (stereo not drawn) [CBK306360] is higher in viability at 28.5 h, 10 µM: 100% for the first, 112% for the second.

Compared with `CCCCC(=O)NC1CCN(C(=O)c2cccc(C#N)c2)CC1` [CBK306309], `CN(CC(=O)NCc1ccc(OCC(N)=O)cc1)C1CCCCC1` [CBK306331] is lower in viability at 28.5 h, 10 µM: 83.4% for the first, 81.7% for the second.

First: Cc1nc(-c2cccnc2)[nH]c(=O)c1CC(=O)N(C)C1CCCCC1 [CBK306310]
Second: Cn1cc(CNCc2ccc(N3CCCC3)nc2)c(-c2cccnc2)n1 [CBK306312]
The viability at 28.5 h, 10 µM of the first is lower: 88.7% for the first, 105% for the second.

Compared with `CC(C)Oc1ncc(C(=O)Nc2cnn(CC(N)=O)c2)cc1Cl` [CBK306311], `CC(C)NC(=O)CCNc1ncc(C(N)=O)cc1Cl` [CBK306373] is higher in viability at 28.5 h, 10 µM: 90.4% for the first, 92.9% for the second.

Going from `COc1ncccc1NC(=O)CSCC#N` [CBK306314] to `COCCNC(=O)CN(C)c1nc2ccccc2[nH]1` [CBK306378], the viability at 28.5 h, 10 µM falls from 108% to 84.6%.

Compared with `COc1ccc(C)cc1-n1ccc(C(=O)NC(C)(C)C)n1` [CBK306315], `CNC(=O)NC(=O)C(C)NCC1(c2cc(C)ccc2OC)CCOCC1` (stereo not drawn) [CBK306318] is higher in viability at 28.5 h, 10 µM: 78.8% for the first, 79.1% for the second.

Compared with `Cn1cc(CNCC2CCN(c3ccccc3)C2)c(-c2ccncc2)n1` (stereo not drawn) [CBK306317], `Cc1ccc2nc(CN3CCC(CNc4ccccn4)C3)cc(=O)n2c1` (stereo not drawn) [CBK306340] is lower in viability at 28.5 h, 10 µM: 94.3% for the first, 83.7% for the second.

First: Cc1nc(SCCn2cccn2)c2c(=O)n(C)c(=O)n(CC(C)C)c2n1 [CBK306321]
Second: CCCc1cc(O)nc(SCCCCn2ccnc2C)n1 [CBK306359]
The viability at 28.5 h, 10 µM of the first is lower: 99.1% for the first, 107% for the second.

Compared with `Cc1[nH]c(=O)c(C#N)c(C)c1CCC(=O)NCc1cn2ccccc2n1` [CBK306325], `CC1CN(C)c2ccccc2CN1C(=O)Cc1cn2ccsc2n1` (stereo not drawn) [CBK306355] is lower in viability at 28.5 h, 10 µM: 93% for the first, 89.1% for the second.

First: OCCn1ncc2c(NCc3ccc(-n4cccn4)nc3)ncnc21 [CBK306326]
Second: Cc1ccc(NCC2CCN(Cc3cc(=O)n4ccccc4n3)C2)nc1 (stereo not drawn) [CBK306334]
The viability at 28.5 h, 10 µM of the first is higher: 87.8% for the first, 80.7% for the second.

Going from `Cc1nc(C(F)(F)F)ccc1C(=O)N1CCCC1c1ccc[nH]1` (stereo not drawn) [CBK306328] to `Cc1nc(COc2ccc(Cl)cc2)sc1C(=O)N1CCC1` [CBK306353], the viability at 28.5 h, 10 µM falls from 107% to 88.5%.

Going from `NC(=O)COc1ccc(CNC(=O)CN2CCc3ccccc32)cc1` [CBK306330] to `CC(CCO)CNS(=O)(=O)c1ccc(N2CCCC2=O)cc1` (stereo not drawn) [CBK306358], the viability at 28.5 h, 10 µM falls from 96.1% to 90.5%.

`CC(C)c1noc(NCc2nnc3n2CCCCC3)n1` [CBK306352] and `Cc1cc(CC(=O)N2CCN(CCNC(=O)C3CCCC3)CC2)no1` [CBK306376] are the same in viability at 28.5 h, 10 µM: 113% for the first, 113% for the second.

First: CC(=O)Nc1cccc(-n2cnnc2SCC2CCOCC2)c1 [CBK306354]
Second: c1csc(C2CN(c3nccn4cnnc34)CCO2)c1 (stereo not drawn) [CBK306380]
The viability at 28.5 h, 10 µM of the first is higher: 92% for the first, 85% for the second.

Compared with `CC(NC(=O)N1CCC1)c1cccc(S(N)(=O)=O)c1` (stereo not drawn) [CBK306357], `COCC1CCCN(S(=O)(=O)c2cnc3ccsc3c2)C1` (stereo not drawn) [CBK306397] is lower in viability at 28.5 h, 10 µM: 91.5% for the first, 66.6% for the second.

First: COc1ccc(C(C)NC2CCN(c3nc(C)cs3)CC2)cc1F (stereo not drawn) [CBK306362]
Second: CN1CCN(CC(=O)Nc2cc(C(F)(F)F)ccc2Cl)C(C)(C)C1 [CBK306363]
The viability at 28.5 h, 10 µM of the first is higher: 94.7% for the first, 85.8% for the second.

First: Cc1nn(C)c(C)c1OCC(=O)Nc1sc2c(c1C#N)CCC2 [CBK306374]
Second: O=S(=O)(Cc1cc(Cl)ccc1F)N1CCN(CCO)CC1 [CBK306385]
The viability at 28.5 h, 10 µM of the first is lower: 79.4% for the first, 80% for the second.

Compound `c1cn2cnnc2c(N2CCOC(c3ccsc3)C2)n1` (stereo not drawn) [CBK306379] has a viability at 28.5 h, 10 µM of 88.8%.
